Measured values published in PubChem BioAssay (NCI).
“And” between values parts separate entries of the source, which are not always exact repeats. Identical values can stand only once.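 1) Cells in 96-well plates. 2) Compound, 48 h, 5 concentrations. 3) Linear interpolation between surrounding doses. 4) Unreached endpoint = highest concentration. Abbreviation: GI50, concentration required for 50% inhibition of growth. The concentration for full growth arrest is given as TGI.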

Key:
Assay in all cases: NCI tumour cell line growth inhibition, 48 h
U251 CNS = test system: U251 CNS
EKVX NSCLC = test system: EKVX NSCLC
HL-60(TB) leukemia = test system: HL-60(TB) leukemia
UACC-62 melanoma = test system: UACC-62 melanoma
HT29 colon = test system: HT29 colon
LOX IMVI melanoma = test system: LOX IMVI melanoma
CCRF-CEM leukemia = test system: CCRF-CEM leukemia
OVCAR-8 ovarian = test system: OVCAR-8 ovarian
M14 melanoma = test system: M14 melanoma
SW-620 colon = test system: SW-620 colon

| SMILES | GI50 (U251 CNS) | TGI (U251 CNS) | GI50 (EKVX NSCLC) | TGI (EKVX NSCLC) | GI50 (HL-60(TB) leukemia) | TGI (HL-60(TB) leukemia) | GI50 (UACC-62 melanoma) | TGI (UACC-62 melanoma) | GI50 (HT29 colon) | TGI (HT29 colon) | GI50 (LOX IMVI melanoma) | TGI (LOX IMVI melanoma) | GI50 (CCRF-CEM leukemia) | TGI (CCRF-CEM leukemia) | GI50 (OVCAR-8 ovarian) | TGI (OVCAR-8 ovarian) | GI50 (M14 melanoma) | TGI (M14 melanoma) | GI50 (SW-620 colon) | TGI (SW-620 colon) |
| --- | --- | --- | --- | --- | --- | --- | --- | --- | --- | --- | --- | --- | --- | --- | --- | --- | --- | --- | --- | --- |
| OC(CN1CC1)C(O)CN1CC1 (configuration not stated) | > 50 µg/mL | > 50 µg/mL | > 50 µg/mL | > 50 µg/mL | > 50 µg/mL | > 50 µg/mL | > 50 µg/mL | > 50 µg/mL | > 50 µg/mL | > 50 µg/mL | > 50 µg/mL | > 50 µg/mL | > 50 µg/mL | > 50 µg/mL | > 50 µg/mL | > 50 µg/mL | > 50 µg/mL | > 50 µg/mL | > 50 µg/mL | > 50 µg/mL |
| NC(=O)c1cccc(Nc2nccc(Nc3cccc(F)c3)n2)c1 | 14.3 µM | > 25 µM | 12.3 µM | > 25 µM | 7.52 µM | 20.5 µM | 5.66 µM | 24.6 µM | 6.98 µM | > 25 µM | 7.66 µM | > 25 µM | 8.54 µM | > 25 µM | 9.49 µM | > 25 µM | 8.92 µM | > 25 µM | 7.11 µM | > 24 µM |
| COc1c(Br)cc(Br)c(OC)c1-c1[nH]c(Br)c(Br)c1Br |  | 25.7 µM |  | 21.1 µM |  | 25.1 µM |  | 22.4 µM |  | 18.3 µM |  | 31.6 µM |  | 20.5 µM |  | 25 µM |  | 20.6 µM |  | 21.7 µM |
| CCCCCCCCCCN=C(c1ccc(N(C)C)cc1)c1ccc(N(C)C)cc1 | 0.579 µM | 33.2 µM | 1.04 µM | > 100 µM | 0.954 µM | 18.9 µM | 0.508 µM | > 38.4 µM | 0.351 µM | 18.5 µM | 0.601 µM | > 96.1 µM | 1.78 µM | > 77.3 µM | 2.09 µM | > 59.5 µM | 0.328 µM | 26.4 µM | 0.425 µM | > 100 µM |
| CCN(CC)CC(=O)N1CCc2c([nH]c3ccccc23)C1c1cccnc1 (configuration not stated) |  | > 100 µM |  | > 100 µM |  | > 100 µM |  | > 100 µM |  | > 100 µM |  | > 100 µM |  | > 100 µM |  | > 100 µM |  | > 100 µM |  | > 100 µM |
| CC1=C(C(=O)Nc2ccccc2C)C(/C=C/c2ccccc2)C(C(=O)Nc2ccccc2C)=C(C)N1 |  | > 100 µM |  | > 100 µM |  | > 100 µM |  | > 100 µM |  | > 100 µM |  | > 100 µM |  | > 100 µM |  | > 100 µM |  | > 100 µM |  | > 100 µM |
| Cc1ccc(S(=O)(=O)N/N=C(\c2nc3ccc([N+](=O)[O-])cc3[nH]c2=O)C(O)c2ccccc2Cl)cc1 (configuration not stated) |  | > 100 µM |  | > 100 µM |  | > 100 µM |  | > 100 µM |  | > 100 µM |  | > 100 µM |  | > 100 µM |  | > 100 µM |  | > 100 µM |  | > 100 µM |
| C[n+]1c2ccccc2cc2c(CNC(CCCN=C(N)N)C(=O)O)cccc21 (configuration not stated) | 2.12 µM | 4.28 µM and 6.85 µM | 2.68 µM | 10.2 µM | 0.187 µM | 0.488 µM and 0.882 µM |  | 2.32 µM | 0.339 µM | 1.14 µM and 5.85 µM |  | 1.92 µM |  | 0.555 µM | 2.42 µM | 5.11 µM and 7.74 µM | 2.86 µM | 15.1 µM |  | 1.78 µM |
| COCCOCCOCc1n(Cc2ccc3ccccc3n2)c2ccccc2[n+]1Cc1ccc2ccccc2c1 | 0.328 µM | 1.26 µM | 1.27 µM | 10.8 µM | 0.187 µM | 0.476 µM | 0.364 µM | 1.36 µM | 0.292 µM | 1.43 µM | 0.333 µM | 1.24 µM | 0.532 µM | 2.45 µM | 0.498 µM | 1.92 µM | 0.414 µM | 1.94 µM | 0.769 µM | 5.37 µM |
| CC1(C)N=C(N)N=C(N)N1c1ccc(OCC(=O)Nc2ccccc2)c(Cl)c1 | 0.674 µM | > 100 µM | 35 µM | > 100 µM | 0.922 µM | > 100 µM | 0.569 µM | > 100 µM | 0.333 µM | > 100 µM | 0.589 µM | > 100 µM | 2.17 µM | > 100 µM | 6.69 µM | > 100 µM | 13.8 µM | > 100 µM | 0.456 µM | > 100 µM |
| C=C1CC2(OC1=O)C(=O)N(CCCN1C(=O)C3(CC(=C)C(=O)O3)c3ccccc31)c1ccccc12 (configuration not stated) | 5.45 µM | 18.7 µM | 13.6 µM | 26.7 µM | 0.831 µM | 2.85 µM | 1.54 µM | 3.11 µM | 1.85 µM | 4.91 µM | 0.805 µM | 2.1 µM | 0.416 µM | 2.5 µM | 1.35 µM | 5.49 µM | 1.68 µM | 3.67 µM | 0.594 µM | 2.08 µM |
| CC(=O)NNc1nc(C)c(C(=O)NNC(=O)C(=O)Nc2nc3ccc([N+](=O)[O-])cc3s2)s1 |  | > 100 µM |  | > 100 µM |  | 79.9 µM |  | > 100 µM |  | > 100 µM |  | > 100 µM |  | 56.5 µM |  | > 100 µM |  | > 100 µM |  | > 100 µM |
| Cc1cc(Nc2nc(SCc3ccc(C(=O)Nc4ccc(F)cc4N)cc3)nn3cccc23)n[nH]1 | 0.343 µM | > 100 µM | 0.919 µM | 55.9 µM | 0.268 µM | 0.785 µM | 0.347 µM | 21.6 µM | 0.322 µM | 10.1 µM | 0.665 µM | > 100 µM | 0.411 µM | > 100 µM | 0.483 µM | 88 µM | 0.289 µM | 15.7 µM | 0.426 µM | > 100 µM |
| COc1ccccc1/C=C/C(=O)/C=C/c1ccccc1O | 0.326 µM | 1.28 µM | 1.75 µM | 5.63 µM | 0.323 µM |  | 1.16 µM | 2.55 µM | 0.853 µM | 2.75 µM | 0.724 µM | 2.01 µM | 0.2 µM | 0.544 µM | 1.26 µM | 10.4 µM | 1.46 µM | 3.17 µM | 0.392 µM | 1.47 µM |
| CC/C(=N\NS(=O)(=O)c1ccccc1)c1ccccc1 |  | > 100 µM |  | > 100 µM |  | > 100 µM |  | > 100 µM |  | > 100 µM |  | > 100 µM |  | > 100 µM |  | > 100 µM |  | > 100 µM |  | > 100 µM |
| CSc1c(C)c(C)nn1-c1ccccc1 |  | > 100 µM |  | > 100 µM |  | > 100 µM |  | > 100 µM |  | > 100 µM |  | > 100 µM |  | > 100 µM |  | > 100 µM |  | > 100 µM |  | > 100 µM |
| CCCCCCCCCCCC[n+]1ccccc1 (tested in a mixture with another compound) | 0.443 µM | 2.2 µM | 0.428 µM | 5.13 µM | 0.253 µM | 1.04 µM | 1.09 µM | 2.54 µM | 0.28 µM | 4.21 µM | 0.691 µM | 2.41 µM | 0.724 µM | 4.53 µM | 0.777 µM | 11.3 µM | 1.1 µM |  | 1.57 µM | 10.5 µM |
| Cc1ccc2nc3c(Cl)c(C)c(=O)cc-3sc2c1 | 45.1 µM | > 100 µM | 63.3 µM | > 100 µM |  | > 100 µM | 27.8 µM | > 1 µM and 92.2 µM | > 100 µM | > 100 µM |  | > 100 µM | 30.5 µM | > 100 µM |  | > 100 µM | 37.7 µM | > 100 µM |  | > 100 µM |
| Cc1ccccc1Nc1nc2c(s1)C(=O)c1ccccc1C2=O |  | 8.83 µM |  | 21 µM |  | > 100 µM |  | 10.3 µM |  | 40.7 µM |  | 5.27 µM |  | > 37.5 µM |  | 9.05 µM |  | 12.1 µM |  | 6.65 µM |
| O=C1C(SCCO)=C(SCCO)C(=O)c2ccccc21 |  | 2.01 µM |  | 3.08 µM |  | 7.91 µM |  | 2.84 µM |  | 3.98 µM |  | 0.812 µM |  | 4.8 µM |  | 1.22 µM |  | 2.5 µM |  | 1.47 µM |
| CC(=O)[CH-]C(C)=O.[CH2-]C.[CH2-]C.[Tl+3] | > 100 µM | > 100 µM | > 100 µM | > 100 µM | > 100 µM | > 100 µM | > 100 µM | > 100 µM | > 100 µM | > 100 µM | > 100 µM | > 100 µM | > 100 µM | > 100 µM | > 100 µM | > 100 µM | > 100 µM | > 100 µM | > 100 µM | > 100 µM |
| COc1ccccc1-c1cc(=O)c2ccc(C)nc2[nH]1 | > 100 µM | > 100 µM |  | > 100 µM | 73.8 µM | > 100 µM |  | > 100 µM |  | > 100 µM |  | > 100 µM |  | > 100 µM |  | > 100 µM |  | > 100 µM |  | > 100 µM |
| CNC(SC)=C1C(=O)OC(C)(C)OC1=O |  | 37.7 µM |  | > 100 µM |  | > 100 µM |  | > 100 µM |  | > 100 µM |  | > 100 µM |  | > 100 µM |  | > 100 µM |  | > 100 µM |  | 38.5 µM |
